The values below come from the supplement of paper PMC4723716.

The structures appear in SMILES notation. Structures can show the parent of a compound that is named as a salt.

For this assay, the system named is Plasmodium falciparum NF54 gametocytes. Conditions: 384, incubation time: 72 h. As for the experimental part:
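Known antimalarials and MMV control compounds in dose response against each stage (I–V) […] The fitted EC50 is reported as IC50 in µM; '>' marks the top dose reached without a curve.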

[1] abbreviates: gametocyte stage: Stage I Dose Response IC50 (µM), assay protocol: SaLSSA.
[2] abbreviates: gametocyte stage: Stage II Dose Response IC50 (µM), assay protocol: SaLSSA.
Where [3] appears, read: gametocyte stage: Stage III Dose Response IC50 (µM), assay protocol: SaLSSA.
The mark [4] stands for this setting: gametocyte stage: Stage IV Dose Response IC50 (µM), assay protocol: SaLSSA.
[5] abbreviates: gametocyte stage: Stage V Dose Response IC50 (µM), assay protocol: SaLSSA.
Where [6] appears, read: gametocyte stage: Stage I Dose Response IC50 (µM), assay protocol: TSSA.
Setting [7] is: gametocyte stage: Stage II Dose Response IC50 (µM), assay protocol: TSSA.
[8] abbreviates: gametocyte stage: Stage III Dose Response IC50 (µM), assay protocol: TSSA.
Setting [9] is: gametocyte stage: Stage IV Dose Response IC50 (µM), assay protocol: TSSA.
The mark [10] stands for this setting: gametocyte stage: Stage V Dose Response IC50 (µM), assay protocol: TSSA.

For `CC1(C)c2nc(-c3ccc(F)cc3)c(Nc3ccc(Cl)cc3)n2CCN1C(=O)CN` [KAF(GNF)179], the “IC50 of gametocyte viability” value came out at 0.341 µM under setting [1]; 0.0641 µM under setting [2]; 0.0199 µM under setting [3]; 0.00915 µM under setting [4]; 0.00336 µM under setting [5].
As to `C(CN1CCOCC1)Oc2ccc(cc2)[C@@H]3CC[C@@]4(CC3)OO[C@@]5(O4)[C@@H]6CC7C[C@@H](CC5C7)C6` [OZ 439 mesylate], the “IC50 of gametocyte viability” value under setting [1] worked out at 0.0107 µM; the “IC50 of gametocyte viability” value under setting [2] was determined as 0.00536 µM; the “IC50 of gametocyte viability” value under setting [3] turned out to be 0.00342 µM; the “IC50 of gametocyte viability” value under setting [4] came to 0.0019 µM; the “IC50 of gametocyte viability” value under setting [5] was more than 12.5 µM.
For `COc1ccc2nc3cc(Cl)ccc3c(Nc3cc(CN4CCCC4)c(O)c(CN4CCCC4)c3)c2n1` [Pyronaridine phosphate] the same measures were 0.0132 µM, 0.01 µM, 0.125 µM, 2.58 µM and 2.08 µM.
For `C[C@]12CC[C@H](OS(=O)(=O)O)CC1=CC[C@@H]1[C@@H]2CC[C@]2(C)C(=O)CC[C@@H]12` [dehydroepiandrosterone sulphate] the same measures were more than 12.5 µM, more than 12.5 µM, more than 12.5 µM, more than 12.5 µM and more than 12.5 µM.
On to `Cc1cc2nc3c(=O)[nH]c(=O)nc-3n(C[C@H](O)[C@H](O)[C@H](O)CO)c2cc1C` [Flavin mononucleotid (Riboflavin)], for which the “IC50 of gametocyte viability” value reads like this: under setting [1], more than 12.5 µM; under setting [2], more than 12.5 µM; under setting [3], more than 12.5 µM; under setting [4], more than 12.5 µM; under setting [5], more than 12.5 µM.
Turning to `COc1cc(N[C@H](C)CCCN)c2nccc(C)c2c1Oc1ccc(Cl)c(Cl)c1` [NPC-1161B], the “IC50 of gametocyte viability” value by setting is: under setting [6], 5.21 µM; under setting [7], 6.63 µM; under setting [8], 4.57 µM; under setting [9], 6.24 µM; under setting [10], 5.22 µM.
In the case of `Clc1ccc2c(N3CCN(CCCN4CCN(c5ccnc6cc(Cl)ccc56)CC4)CC3)ccnc2c1` [Piperaquine phosphate], the “IC50 of gametocyte viability” value reads like this: under setting [1], 0.018 µM; under setting [2], 0.0145 µM; under setting [3], 0.031 µM; under setting [4], more than 4.17 µM; under setting [5], more than 4.17 µM.
Regarding `CCN(CC)CCCC(C)Nc1ccnc2cc(Cl)ccc12` (stereo not drawn) [Chloroquine], the “IC50 of gametocyte viability” value is 0.0956 µM under setting [1]; 0.084 µM under setting [6]; 0.0981 µM under setting [2]; 0.0806 µM under setting [7]; more than 6.25 µM under setting [3]; more than 6.25 µM under setting [8]. Also, the “IC50 of gametocyte viability” value by setting is: under setting [4], more than 6.25 µM; under setting [9], more than 6.25 µM; under setting [5], more than 6.25 µM; under setting [10], more than 6.25 µM.
`COc1ncnc(NS(=O)(=O)c2ccc(N)cc2)c1OC` [Sulfadoxine]: the “IC50 of gametocyte viability” value is more than 12.5 µM under setting [1]; more than 12.5 µM under setting [2]; more than 12.5 µM under setting [3]; more than 12.5 µM under setting [4]; more than 12.5 µM under setting [5].
`O=CN(O)CCCP(=O)([O-])O` [fosmidomycin mono sodium]: the “IC50 of gametocyte viability” value reads like this: under setting [1], more than 12.5 µM; under setting [2], more than 12.5 µM; under setting [3], more than 12.5 µM; under setting [4], more than 12.5 µM; under setting [5], more than 12.5 µM.
For the compound `Cc1cc(NS(=O)(=O)c2ccc(N)cc2)no1` [Sulfamethoxazole], the “IC50 of gametocyte viability” value by setting is: under setting [6], more than 12.5 µM; under setting [7], more than 12.5 µM; under setting [8], more than 12.5 µM; under setting [9], more than 12.5 µM; under setting [10], more than 12.5 µM.
As to `C[C@H]1[C@@H](O)O[C@@H]2O[C@@]3(C)CC[C@H]4[C@H](C)CC[C@@H]1[C@@]24OO3` [Artenimol (Dihydro artemisinin)], the “IC50 of gametocyte viability” value runs as follows: under setting [1], 0.00579 µM; under setting [2], 0.0027 µM; under setting [3], 0.00674 µM; under setting [4], 0.0207 µM; under setting [5], more than 12.5 µM.
For `C=C[C@H]1CN2CC[C@@H]1C[C@H]2[C@H](O)c1ccnc2ccc(OC)cc12` [Quinine sulfate dihydrate (coeff. 2)] the same measures were 0.44 µM, 0.496 µM, more than 8.77 µM, more than 12.5 µM and more than 8.86 µM.
As for `O=C1C(O)=C([C@H]2CC[C@H](c3ccc(Cl)cc3)CC2)C(=O)c2ccccc21` [Atovaquone], the “IC50 of gametocyte viability” value reads like this: under setting [6], more than 12.5 µM; under setting [7], more than 12.5 µM; under setting [8], more than 12.5 µM; under setting [9], more than 12.5 µM; under setting [10], more than 12.5 µM.
Take `CN(C)c1ccc2nc3ccc(=[N+](C)C)cc-3sc2c1` [Methylene Blue trihydrate]: the “IC50 of gametocyte viability” value by setting is: under setting [6], 0.0222 µM; under setting [7], 0.0164 µM; under setting [8], 0.0181 µM; under setting [9], 0.0454 µM; under setting [10], 1.04 µM.
For `CCCCN(CCCC)CC(O)c1cc(Cl)cc2c1-c1ccc(Cl)cc1/C2=C/c1ccc(Cl)cc1` (stereo not drawn) [Lumefantrine] the same measures were 0.0224 µM, 0.0352 µM, 0.0227 µM, more than 9.77 µM and more than 12.5 µM.
Regarding `O[C@@H](c1cc(C(F)(F)F)nc2c(C(F)(F)F)cccc12)[C@H]1CCCCN1` [Mefloquine (+ RS)], the “IC50 of gametocyte viability” value runs as follows: under setting [1], 0.0379 µM; under setting [2], 0.039 µM; under setting [3], 0.078 µM; under setting [4], 0.579 µM; under setting [5], 0.158 µM.
For `CC(C)(C)NCc1cc(Nc2ccnc3cc(Cl)ccc23)c2c(c1O)CCCC2` [Naphthoquine] the same measures were 0.0251 µM, 0.0145 µM, 0.296 µM, more than 4.17 µM and more than 4.17 µM.
On to `CN(C)c1ccc2nc3ccc(N(C)C)cc3[s+]c2c1` [Methylene Blue trihydrate], for which the “IC50 of gametocyte viability” value by setting is: under setting [1], 0.0199 µM; under setting [2], 0.0153 µM; under setting [3], 0.0133 µM; under setting [4], 0.0117 µM; under setting [5], 0.258 µM.
On to `CC[C@H]1OC(=O)[C@H](C)[C@@H](O[C@H]2C[C@@](C)(OC)[C@@H](O)[C@H](C)O2)[C@H](C)[C@@H](O[C@@H]2O[C@H](C)C[C@H](N(C)C)[C@H]2O)[C@](C)(O)C[C@@H](C)CN(C)[C@H](C)[C@@H](O)[C@]1(C)O` [Azithromycin], for which the “IC50 of gametocyte viability” value by setting is: under setting [6], more than 12.5 µM; under setting [7], more than 12.5 µM; under setting [8], more than 12.5 µM; under setting [9], more than 12.5 µM; under setting [10], more than 12.5 µM.
Consider `CCCCN(CCCC)CCC(O)c1cc2c(Cl)cc(Cl)cc2c2cc(C(F)(F)F)ccc12` (stereo not drawn) [Halofantrine] [listing 1 of 2 here], for which the “IC50 of gametocyte viability” value runs as follows: under setting [6], 0.00577 µM; under setting [9], more than 12.5 µM; under setting [10], more than 12.5 µM.
Take `O[C@@H](c1cc(C(F)(F)F)nc2c(C(F)(F)F)cccc12)[C@H]1CCCCN1` (racemic) [Mefloquine (Racemic)]: the “IC50 of gametocyte viability” value amounted to 0.0441 µM under setting [1]; 0.052 µM under setting [2]; 0.143 µM under setting [3]; 0.818 µM under setting [4]; 0.132 µM under setting [5].
On to `C=C[C@H]1CN2CC[C@H]1C[C@@H]2[C@@H](O)c1ccnc2ccc(OC)cc12` [Quinidine], for which the “IC50 of gametocyte viability” value is, setting by setting: under setting [1], 0.138 µM; under setting [2], 0.208 µM; under setting [3], more than 9.17 µM; under setting [4], more than 12.5 µM; under setting [5], more than 11.8 µM.
With `CCCCN(CCCC)CCC(O)c1cc2c(Cl)cc(Cl)cc2c2cc(C(F)(F)F)ccc12` (stereo not drawn) [Halofantrine] [listing 2 of 2 here], the “IC50 of gametocyte viability” value under setting [1] was found to be 0.00161 µM; the “IC50 of gametocyte viability” value under setting [2] is 0.000896 µM; the “IC50 of gametocyte viability” value under setting [3] worked out at 0.0233 µM; the “IC50 of gametocyte viability” value under setting [4] came to 1.51 µM; the “IC50 of gametocyte viability” value under setting [5] is 0.0075 µM.
`CCc1nc(N)nc(N)c1OCCCOc1ccccc1CCC(=O)O` [P218.HCl]: the “IC50 of gametocyte viability” value was more than 12.5 µM under setting [1]; more than 12.5 µM under setting [2]; more than 12.5 µM under setting [3]; more than 12.5 µM under setting [4]; more than 12.5 µM under setting [5].
